Experimental data: patent US20220152031A1, “PYRIDAZINONES AND METHODS OF USE THEREOF” (Goldfinch Bio, Inc., priority 2019, published 2022)
Read-outs that look alike come from different tables or passages of the source.

Target: T1, TRPC4 (Homo sapiens, UniProt Q9UBN4)
T1 construct: expressed in transfected cells
T1 sequence (Q9UBN4 1-982 isoform Q9UBN4-5): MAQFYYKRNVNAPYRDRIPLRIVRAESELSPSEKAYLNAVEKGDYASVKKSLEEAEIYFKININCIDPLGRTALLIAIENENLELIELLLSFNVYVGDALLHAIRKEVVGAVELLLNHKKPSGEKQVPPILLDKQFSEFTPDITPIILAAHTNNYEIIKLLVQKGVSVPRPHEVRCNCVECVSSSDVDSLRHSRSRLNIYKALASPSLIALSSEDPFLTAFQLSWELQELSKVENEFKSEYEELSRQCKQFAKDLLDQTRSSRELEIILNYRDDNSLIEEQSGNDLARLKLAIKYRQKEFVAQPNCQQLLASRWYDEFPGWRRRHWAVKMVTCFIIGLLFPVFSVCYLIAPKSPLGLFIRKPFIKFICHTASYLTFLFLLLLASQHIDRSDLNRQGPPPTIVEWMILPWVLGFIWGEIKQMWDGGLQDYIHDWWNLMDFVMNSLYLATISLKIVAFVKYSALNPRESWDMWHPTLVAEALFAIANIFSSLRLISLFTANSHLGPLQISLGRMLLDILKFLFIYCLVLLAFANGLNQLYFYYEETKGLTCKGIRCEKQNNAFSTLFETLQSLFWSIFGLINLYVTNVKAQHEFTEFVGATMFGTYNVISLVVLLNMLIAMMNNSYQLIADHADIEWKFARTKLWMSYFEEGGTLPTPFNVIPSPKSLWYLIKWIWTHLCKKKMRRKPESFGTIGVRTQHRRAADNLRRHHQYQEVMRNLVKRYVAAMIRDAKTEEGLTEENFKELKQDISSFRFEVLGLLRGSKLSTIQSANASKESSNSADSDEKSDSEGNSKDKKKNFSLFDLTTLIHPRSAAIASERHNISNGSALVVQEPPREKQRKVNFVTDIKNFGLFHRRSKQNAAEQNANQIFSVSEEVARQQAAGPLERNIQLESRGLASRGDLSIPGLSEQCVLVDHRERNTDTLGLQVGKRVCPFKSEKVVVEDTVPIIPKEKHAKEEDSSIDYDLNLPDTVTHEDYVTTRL
Assay: TRPC4 activity assay (FLIPR calcium fluorescence, HEK-TREx hTRPC4 cells)
Type: cell-based
Description: ICLN-1694 cells (HEK-TREx hTRPC4) expressing TRPC4 were generated as follows. Commercially available HekTrex-293 cells were seeded at 0.7×10^6 cells/well in a 1×6-well plate 24 hrs prior to transfection using 2 mL cell growth media containing no antibiotics (lx DMEM/high glucose (Hyclone #SH30022.02); 10% fetal bovine serum (Sigma) 2 mM sodium pyruvate, 10 mM HEPES). […] On day 2, 2 μg of plasmid DNA plus 6 μl of Xtreme-GENE HP reagent in Optimem (200 μl total volume) was prepared and incubated for 15 min at room temperature. This plasmid solution was then gently overlayed dropwise onto each well and the plate was gently swirled to mix complex with the media for approximately 30 seconds. Transfected cells were incubated at 37° C. in a 10% CO2 incubator for 24 hrs. The transfected cells were harvested and transferred into 2×150 mm dishes containing cell growth media with no antibiotics at 37° C.
The next day selection was initiated to generate a stable pool by adding cell growth media containing 150 μg/mL Hygromycin and 5 μg/mL Blasticidin and cells were allowed to grow. Media with the selection agent was changed every 1-2 days as needed to remove dead cells. After 7 days, the hygromycin concentration was reduced to 75 μg/mL and cells growth was allowed to continue.
Single clones were selected as follows. The stable pool was diluted to 10 cells/mL and seeded (100 μl/well) into 24×96 well plates (˜1 cell/well) and allowed to grow for 7 days in cell growth media. Fresh media (100 μl) was added and the cells allowed to grow for another 1-2 weeks and then stored frozen or used immediately.
10-point dose response curves were generated using the Echo-550 acoustic dispenser. Compound source plates were made by serially diluting compound stocks to create 10 mM, 1 mM, and 0.1 mM solutions in DMSO into Echo-certified LDV plates. The Echo then serially spotted 100% DMSO stock solutions into source dose response plates to generate a 4-fold dilution scheme. 100% DMSO was added to the spotted dose response plates to bring the final volume to 5 μl. 300 nl of the dose response stock plate was then spotted into pre-incubation and stimulation assay plates. 50 μl of pre-incubation buffer and 100 μl of stimulation buffer was then added to the plates resulting in a final assay test concentration range of 30 μM to 0.0001 μM with a final DMSO concentration of 0.3%.
ICLN-1694 cells (HEK-TREx hTRPC4) were plated onto 384 well, black pdl-coated microplates and maintained in cell growth media supplemented with 1 μg/mL tetracycline the day prior to use for experiments. TRPC4 expression was induced by the application of 1 μg/mL tetracycline at the time of plating. […] Cells were incubated at room temperature, protected from light, for 60-90 minutes. After the incubation period, the dye was removed and replaced with 10 μl of EBSS. Cell, pre-incubation and stimulation plates were loaded onto the FLIPR-II and the assay was initiated. The FLIPR measured a 10 second baseline and then added 10 μl of 2× compounds (or controls). Changes in fluorescence were monitored for an additional 5 minutes. After a 5 minute pre-incubation, 20 μl of 2× Englerin A (with 1× compound or controls) was added to the cell plate. The final Engerlin A stimulation concentration in the assay was 100 nM. After the Englerin A addition, changes in fluorescence were monitored for an additional 5 minutes.
Compound modulation of TRPC4 calcium response was determined as follows. After the Englerin A, fluorescence was monitored for a 5-minute period. The maximum relative fluorescence response (minus the control response of 1 μM of an internal control compound known to maximally block TRPC4 calcium response, the “REF INHIB” in the formula below) was captured and exported from the FLIPR.
Compound effect is calculated as % inhibition using the following formula: […]
wherein “RFU” is the relative fluorescent units.

[1] = Table 6, HEK-TREx hTRPC4, read-out: hTRPC4-FLIPR IC50
[2] = Table 5, HEK-TREx hTRPC4, read-out: TRPC4 FLIPR IC50
[3] = Table 7, HEK-TREx hTRPC4, read-out: TRPC4-FLIPR IC50

SMILES	IC50 [1]	IC50 [2]	IC50 [3]
CC(c1ccc(F)cc1C(F)(F)F)N1CCN(c2cn[nH]c(=O)c2Cl)CC1=O (single isomer, unassigned) [MF]	0.01 to 1000 nM		
O=C1CN(c2cn[nH]c(=O)c2Cl)CCN1Cc1ccccc1C(F)(F)F [AO]		0.01 to 1000 nM	
CCc1ncccc1N(CC)C1CCN(c2cn[nH]c(=O)c2Cl)CC1 [LW, 4-chloro-5-[4-[ethyl(2-ethylpyridin-3-yl)amino]piperidin-1-yl]-2,3-dihydropyridazin-3-one]	0.01 to 1000 nM	0.01 to 1000 nM	
CCc1ncccc1[C@H](C)N1CCN(c2cn[nH]c(=O)c2Cl)CC1 [LY, 4-chloro-5-[4-[(1S)-1-(2-ethylpyridin-3-yl)ethyl]piperazin-1-yl]-2,3-dihydropyridazin-3-one]	0.01 to 1000 nM	0.01 to 1000 nM	
C[C@@H]1Cc2c(nnn2[C@H](C)c2ccccc2C(F)(F)F)CN1c1cn[nH]c(=O)c1Cl [MX, 4-chloro-5-[(6R)-6-methyl-1-[(1R)-1-[2-(trifluoromethyl)phenyl]ethyl]-1H,4H,5H,6H,7H-[1,2,3]triazolo[4,5-c]pyridin-5-yl]-2,3-dihydropyridazin-3-one]		0.01 to 1000 nM	0.01 to 1000 nM
CN1CCN(C(=O)c2nn(Cc3ccccc3C(F)F)c3c2CN(c2cn[nH]c(=O)c2Cl)CC3)CC1 [OM]			0.01 to 1000 nM
NC(=O)c1nn(Cc2ccccc2C(F)(F)F)c2c1CN(c1cn[nH]c(=O)c1Cl)CC2 [OP, 5-(5-Chloro-6-oxo-1,6-dihydropyridazin-4-yl)-1-[[2-(trifluoromethyl)phenyl]methyl]-1H,4H,5H,6H,7H-pyrazolo[4,3-c]pyridine-3-carboxamide]		0.01 to 1000 nM	0.01 to 1000 nM
CN1CCN(Cc2nn(Cc3ccccc3C(F)F)c3c2CN(c2cn[nH]c(=O)c2Cl)CC3)CC1 [OU, 4-Chloro-5-(1-[[2-(difluoromethyl)phenyl]methyl]-3-[(4-methylpiperazin-1-yl)methyl]-1H,4H,5H,6H,7H-pyrazolo[4,3-c]pyridin-5-yl)-2,3-dihydropyridazin-3-one]			0.01 to 1000 nM
CN(C)C(=O)c1nc2c(n1Cc1ccccc1C(F)(F)F)CCN(c1cn[nH]c(=O)c1Cl)C2 [PW]		0.01 to 1000 nM	0.01 to 1000 nM
CN(c1ncc2c(n1)CN(c1cn[nH]c(=O)c1Cl)C2)c1ccccc1C(F)(F)F [QM]		0.01 to 1000 nM	0.01 to 1000 nM
